Tests used:
[1] = molecular target: RAC-alpha serine/threonine-protein kinase (Homo sapiens, UniProt P31749); assay: Inhibition of full-length recombinant human His-tagged AKT1-alpha expressed in baculovirus expression system by Z'-LYTE assay
[2] = molecular target: Serine/threonine-protein kinase B-raf (Homo sapiens, UniProt P15056); assay: Inhibition of full-length recombinant human GST-tagged BRAF expressed in baculovirus expression system by Z'-LYTE assay
[3] = molecular target: Cyclin-dependent kinase 2 (Homo sapiens, UniProt P24941); assay: Inhibition of full-length recombinant human His-tagged CDK2 expressed in baculovirus expression system by Z'-LYTE assay
[4] = molecular target: Leucine-rich repeat serine/threonine-protein kinase 2 (Homo sapiens, UniProt Q5S007); assay: Inhibition of recombinant human GST-tagged LRRK2 catalytic domain expressed in baculovirus expression system by Adapta assay
Sequence of Leucine-rich repeat serine/threonine-protein kinase 2 (Q5S007 whole entry, the tested form may be a part): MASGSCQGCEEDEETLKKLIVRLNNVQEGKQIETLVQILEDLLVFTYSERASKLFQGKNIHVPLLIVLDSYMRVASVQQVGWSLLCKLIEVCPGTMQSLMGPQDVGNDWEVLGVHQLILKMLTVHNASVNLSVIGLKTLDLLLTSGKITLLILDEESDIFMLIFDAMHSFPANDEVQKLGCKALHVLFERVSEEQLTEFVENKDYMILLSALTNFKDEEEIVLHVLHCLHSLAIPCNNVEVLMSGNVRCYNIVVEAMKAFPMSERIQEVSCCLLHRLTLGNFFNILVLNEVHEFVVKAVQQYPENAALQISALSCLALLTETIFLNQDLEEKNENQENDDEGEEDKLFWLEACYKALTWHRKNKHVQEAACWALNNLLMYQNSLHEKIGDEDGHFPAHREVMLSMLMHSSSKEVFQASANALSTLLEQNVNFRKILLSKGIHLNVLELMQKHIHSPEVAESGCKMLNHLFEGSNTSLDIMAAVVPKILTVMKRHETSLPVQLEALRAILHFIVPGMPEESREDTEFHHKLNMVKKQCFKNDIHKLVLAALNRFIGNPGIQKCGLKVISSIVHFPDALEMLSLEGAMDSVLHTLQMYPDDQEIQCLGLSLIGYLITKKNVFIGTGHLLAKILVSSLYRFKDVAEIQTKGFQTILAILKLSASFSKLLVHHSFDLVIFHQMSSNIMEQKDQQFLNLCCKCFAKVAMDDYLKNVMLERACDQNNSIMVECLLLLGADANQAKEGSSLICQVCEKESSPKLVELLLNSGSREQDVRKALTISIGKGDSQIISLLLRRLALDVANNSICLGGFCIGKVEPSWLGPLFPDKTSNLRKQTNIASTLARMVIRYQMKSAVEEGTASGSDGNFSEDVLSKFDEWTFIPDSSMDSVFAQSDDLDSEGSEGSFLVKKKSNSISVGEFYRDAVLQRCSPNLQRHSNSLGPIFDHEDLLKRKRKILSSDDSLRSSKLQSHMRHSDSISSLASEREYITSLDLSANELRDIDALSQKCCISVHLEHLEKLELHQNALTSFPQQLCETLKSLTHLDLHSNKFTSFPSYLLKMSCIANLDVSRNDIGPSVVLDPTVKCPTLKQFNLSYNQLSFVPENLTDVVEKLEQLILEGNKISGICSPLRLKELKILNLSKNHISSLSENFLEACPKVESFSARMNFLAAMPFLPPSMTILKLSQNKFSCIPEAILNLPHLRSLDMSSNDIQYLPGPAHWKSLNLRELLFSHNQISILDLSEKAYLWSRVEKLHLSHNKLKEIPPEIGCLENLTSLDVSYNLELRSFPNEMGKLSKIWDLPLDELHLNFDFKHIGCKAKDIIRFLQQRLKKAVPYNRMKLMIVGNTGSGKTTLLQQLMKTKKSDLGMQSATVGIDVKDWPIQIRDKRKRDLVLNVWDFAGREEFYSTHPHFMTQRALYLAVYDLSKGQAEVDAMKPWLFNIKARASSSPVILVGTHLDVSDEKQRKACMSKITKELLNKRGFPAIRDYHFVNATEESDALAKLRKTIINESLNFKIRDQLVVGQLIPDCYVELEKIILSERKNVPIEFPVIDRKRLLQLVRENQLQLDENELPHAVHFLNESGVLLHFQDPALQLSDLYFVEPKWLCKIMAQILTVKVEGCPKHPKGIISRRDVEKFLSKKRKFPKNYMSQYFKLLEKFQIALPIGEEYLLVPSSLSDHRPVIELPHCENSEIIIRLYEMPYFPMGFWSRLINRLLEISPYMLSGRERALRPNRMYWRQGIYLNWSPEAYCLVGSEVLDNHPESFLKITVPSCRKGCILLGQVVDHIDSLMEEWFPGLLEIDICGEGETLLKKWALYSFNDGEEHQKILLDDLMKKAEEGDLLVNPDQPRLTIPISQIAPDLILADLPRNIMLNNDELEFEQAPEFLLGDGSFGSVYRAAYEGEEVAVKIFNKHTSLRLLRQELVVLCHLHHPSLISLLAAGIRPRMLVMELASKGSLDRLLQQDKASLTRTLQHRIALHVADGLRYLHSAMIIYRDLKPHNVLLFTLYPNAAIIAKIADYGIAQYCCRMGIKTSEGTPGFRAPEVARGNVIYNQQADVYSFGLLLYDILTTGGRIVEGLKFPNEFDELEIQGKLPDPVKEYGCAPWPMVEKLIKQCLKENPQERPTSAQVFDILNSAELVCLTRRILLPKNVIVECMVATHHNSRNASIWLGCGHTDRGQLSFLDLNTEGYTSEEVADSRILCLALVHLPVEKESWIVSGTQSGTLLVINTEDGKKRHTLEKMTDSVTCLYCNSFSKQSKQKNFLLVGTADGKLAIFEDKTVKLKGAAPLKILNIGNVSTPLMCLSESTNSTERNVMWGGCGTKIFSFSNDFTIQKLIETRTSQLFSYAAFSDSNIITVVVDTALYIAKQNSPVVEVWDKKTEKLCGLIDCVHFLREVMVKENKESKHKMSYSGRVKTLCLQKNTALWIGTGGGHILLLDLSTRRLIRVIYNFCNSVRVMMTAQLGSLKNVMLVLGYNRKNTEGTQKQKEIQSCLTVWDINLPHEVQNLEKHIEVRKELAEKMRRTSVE

[5] = molecular target: T1, Dual specificity mitogen-activated protein kinase kinase 6 (Homo sapiens, UniProt P52564); assay: Inhibition of full-length recombinant human His-tagged MAP2K6 expressed in baculovirus expression system by Z'-LYTE assay
T1 sequence (P52564 whole entry): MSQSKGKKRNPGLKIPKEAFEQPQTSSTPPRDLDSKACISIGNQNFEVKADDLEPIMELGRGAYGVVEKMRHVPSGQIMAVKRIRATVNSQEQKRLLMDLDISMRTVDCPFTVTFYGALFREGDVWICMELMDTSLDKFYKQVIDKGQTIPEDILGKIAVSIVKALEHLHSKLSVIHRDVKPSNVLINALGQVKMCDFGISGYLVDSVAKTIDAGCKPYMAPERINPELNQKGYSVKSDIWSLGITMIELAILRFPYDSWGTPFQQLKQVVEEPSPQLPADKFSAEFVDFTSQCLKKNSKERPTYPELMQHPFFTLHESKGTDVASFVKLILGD

[6] = molecular target: T2, Protein kinase C iota type (Homo sapiens, UniProt P41743); assay: Inhibition of full-length recombinant human His-tagged PRKCI expressed in baculovirus expression system by Z'-LYTE assay
T2 sequence (P41743 whole entry): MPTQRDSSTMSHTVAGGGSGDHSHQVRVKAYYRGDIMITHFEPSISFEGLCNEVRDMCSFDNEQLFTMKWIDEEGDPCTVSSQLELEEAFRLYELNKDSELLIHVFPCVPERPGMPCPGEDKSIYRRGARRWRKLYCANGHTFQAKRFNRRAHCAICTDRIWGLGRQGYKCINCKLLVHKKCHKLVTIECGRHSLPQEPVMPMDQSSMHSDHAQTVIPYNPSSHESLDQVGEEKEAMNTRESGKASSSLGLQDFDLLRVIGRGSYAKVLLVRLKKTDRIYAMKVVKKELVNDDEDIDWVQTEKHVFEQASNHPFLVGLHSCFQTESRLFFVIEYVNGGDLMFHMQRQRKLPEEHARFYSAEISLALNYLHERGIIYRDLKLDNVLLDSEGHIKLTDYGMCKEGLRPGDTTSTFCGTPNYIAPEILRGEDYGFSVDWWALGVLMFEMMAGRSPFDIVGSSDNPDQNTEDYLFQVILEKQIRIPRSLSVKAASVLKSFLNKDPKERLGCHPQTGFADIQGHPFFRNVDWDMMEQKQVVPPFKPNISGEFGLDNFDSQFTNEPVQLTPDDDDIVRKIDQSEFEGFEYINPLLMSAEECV

[7] = molecular target: Sphingosine kinase 1 (Homo sapiens, UniProt Q9NYA1); assay: Inhibition of full-length recombinant human GST-tagged SPHK1 by Z'-LYTE assay
Sequence of Sphingosine kinase 1 (Q9NYA1 whole entry, the tested form may be a part): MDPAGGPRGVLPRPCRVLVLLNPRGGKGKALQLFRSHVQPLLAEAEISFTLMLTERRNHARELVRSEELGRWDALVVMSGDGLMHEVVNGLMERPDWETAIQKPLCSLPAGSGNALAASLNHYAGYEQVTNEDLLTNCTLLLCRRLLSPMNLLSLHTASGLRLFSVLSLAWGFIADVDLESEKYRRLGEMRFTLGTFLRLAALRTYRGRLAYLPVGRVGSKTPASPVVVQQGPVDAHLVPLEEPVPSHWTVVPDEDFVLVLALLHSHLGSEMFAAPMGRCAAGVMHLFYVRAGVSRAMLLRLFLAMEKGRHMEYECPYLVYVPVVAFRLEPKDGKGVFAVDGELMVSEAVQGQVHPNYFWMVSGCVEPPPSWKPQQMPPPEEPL

[8] = molecular target: T3, Serine/threonine-protein kinase TAO2 (Homo sapiens, UniProt Q9UL54); assay: Inhibition of recombinant human GST-tagged TAOK2 catalytic domain expressed in baculovirus expression system by Z'-LYTE assay
T3 sequence (Q9UL54 whole entry): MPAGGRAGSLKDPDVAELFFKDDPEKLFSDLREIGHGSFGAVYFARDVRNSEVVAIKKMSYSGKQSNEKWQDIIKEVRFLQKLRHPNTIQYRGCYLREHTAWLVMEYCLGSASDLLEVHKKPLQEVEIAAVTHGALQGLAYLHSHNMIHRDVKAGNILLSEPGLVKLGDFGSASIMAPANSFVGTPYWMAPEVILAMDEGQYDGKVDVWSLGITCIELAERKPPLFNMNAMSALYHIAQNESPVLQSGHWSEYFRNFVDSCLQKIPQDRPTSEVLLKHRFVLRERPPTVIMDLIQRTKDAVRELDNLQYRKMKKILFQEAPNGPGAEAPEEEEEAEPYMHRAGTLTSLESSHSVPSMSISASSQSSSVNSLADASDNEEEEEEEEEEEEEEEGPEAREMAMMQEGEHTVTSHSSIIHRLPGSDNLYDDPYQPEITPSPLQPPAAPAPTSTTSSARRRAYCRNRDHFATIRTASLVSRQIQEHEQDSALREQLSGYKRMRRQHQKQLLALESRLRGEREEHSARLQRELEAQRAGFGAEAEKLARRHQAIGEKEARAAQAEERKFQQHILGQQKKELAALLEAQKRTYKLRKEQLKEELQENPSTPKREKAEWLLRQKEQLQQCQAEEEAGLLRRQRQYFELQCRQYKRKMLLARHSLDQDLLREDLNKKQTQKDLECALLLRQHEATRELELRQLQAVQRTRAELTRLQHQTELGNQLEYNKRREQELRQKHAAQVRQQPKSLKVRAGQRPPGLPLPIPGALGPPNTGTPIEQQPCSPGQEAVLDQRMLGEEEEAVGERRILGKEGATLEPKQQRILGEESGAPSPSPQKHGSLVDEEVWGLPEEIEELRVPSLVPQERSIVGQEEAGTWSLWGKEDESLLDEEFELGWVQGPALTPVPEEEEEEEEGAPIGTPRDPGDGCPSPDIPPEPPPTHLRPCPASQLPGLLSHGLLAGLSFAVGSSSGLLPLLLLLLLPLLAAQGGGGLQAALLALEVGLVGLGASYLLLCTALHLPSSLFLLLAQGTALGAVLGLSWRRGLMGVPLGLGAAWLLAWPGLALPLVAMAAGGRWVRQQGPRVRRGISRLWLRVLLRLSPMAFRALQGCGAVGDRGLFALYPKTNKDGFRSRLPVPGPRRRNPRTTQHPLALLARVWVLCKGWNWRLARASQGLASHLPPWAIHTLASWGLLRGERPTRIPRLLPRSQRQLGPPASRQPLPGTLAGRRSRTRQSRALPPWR

Sequence of Serine/threonine-protein kinase B-raf (P15056 whole entry): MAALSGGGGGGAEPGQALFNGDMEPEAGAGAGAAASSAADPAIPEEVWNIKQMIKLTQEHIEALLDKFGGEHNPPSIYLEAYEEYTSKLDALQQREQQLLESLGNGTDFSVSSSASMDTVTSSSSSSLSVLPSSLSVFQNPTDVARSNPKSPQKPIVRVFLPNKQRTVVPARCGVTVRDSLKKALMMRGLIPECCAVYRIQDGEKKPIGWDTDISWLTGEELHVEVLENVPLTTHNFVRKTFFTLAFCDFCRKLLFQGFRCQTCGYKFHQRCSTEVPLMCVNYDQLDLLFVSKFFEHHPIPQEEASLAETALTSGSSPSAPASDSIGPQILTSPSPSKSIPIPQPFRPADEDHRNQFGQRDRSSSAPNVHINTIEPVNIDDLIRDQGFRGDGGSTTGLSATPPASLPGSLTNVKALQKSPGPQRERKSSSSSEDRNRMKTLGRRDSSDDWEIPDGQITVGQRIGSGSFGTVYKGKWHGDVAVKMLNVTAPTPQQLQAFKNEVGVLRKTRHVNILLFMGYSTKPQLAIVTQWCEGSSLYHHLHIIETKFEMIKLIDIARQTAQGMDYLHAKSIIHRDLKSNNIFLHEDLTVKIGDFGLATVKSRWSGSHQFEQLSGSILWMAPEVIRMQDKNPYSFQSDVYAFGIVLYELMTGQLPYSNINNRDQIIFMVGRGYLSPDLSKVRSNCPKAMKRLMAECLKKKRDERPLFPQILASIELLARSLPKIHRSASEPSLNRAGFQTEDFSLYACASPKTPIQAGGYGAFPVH
Sequence of RAC-alpha serine/threonine-protein kinase (P31749 whole entry): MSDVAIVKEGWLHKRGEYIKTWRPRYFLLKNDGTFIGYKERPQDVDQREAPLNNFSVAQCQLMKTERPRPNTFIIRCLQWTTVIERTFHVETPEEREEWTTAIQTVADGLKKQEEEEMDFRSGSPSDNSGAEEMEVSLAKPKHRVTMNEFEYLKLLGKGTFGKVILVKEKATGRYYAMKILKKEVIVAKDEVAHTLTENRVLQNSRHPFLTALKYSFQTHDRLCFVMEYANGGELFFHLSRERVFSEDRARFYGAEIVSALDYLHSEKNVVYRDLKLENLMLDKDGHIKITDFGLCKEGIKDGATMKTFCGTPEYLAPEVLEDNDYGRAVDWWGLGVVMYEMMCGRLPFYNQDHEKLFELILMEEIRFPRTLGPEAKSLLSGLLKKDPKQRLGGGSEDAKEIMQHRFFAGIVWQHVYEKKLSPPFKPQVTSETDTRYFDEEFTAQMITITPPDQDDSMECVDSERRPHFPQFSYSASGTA

SMILES: O=C(NCC(F)(F)F)c1cc(-c2cnn3cc(-c4ccc(OCCN5CCCCC5)cc4)cnc23)cs1
- IC50 [1]: 24000 nM
- IC50 [2]: 550 nM
- IC50 [3]: 12 nM
- IC50 [4]: 14 nM
- IC50 [5]: 19000 nM
- IC50 [6]: 1500 nM
- IC50 [7]: 32000 nM
- IC50 [8]: 2700 nM

SMILES: Cn1cc(-c2cnc3c(-c4csc(C(=O)NCC(F)(F)F)c4)cnn3c2)cn1
- IC50 [1]: > 100000 nM
- IC50 [2]: 1500 nM
- IC50 [3]: < 10 nM
- IC50 [4]: < 10 nM
- IC50 [5]: 35000 nM
- IC50 [6]: 6700 nM
- IC50 [7]: > 100000 nM
- IC50 [8]: 25000 nM

SMILES: Cn1cc(-c2cnc3c(-c4csc(C(=O)N[C@@H]5CCCC[C@@H]5N)c4)cnn3c2)cn1 (racemic)
- IC50 [1]: 80 nM
- IC50 [2]: 19 nM
- IC50 [3]: 2.2 nM
- IC50 [4]: 3.1 nM
- IC50 [5]: 290 nM
- IC50 [6]: 37 nM
- IC50 [7]: > 10000 nM
- IC50 [8]: 420 nM

SMILES: Cc1sc(C(=O)N[C@@H]2[C@H](N)CCCC2(F)F)cc1-c1cnn2cc(Cl)cnc12
- IC50 [1]: 870 nM
- IC50 [2]: 1100 nM
- IC50 [3]: 51 nM
- IC50 [4]: 62 nM
- IC50 [5]: 3300 nM
- IC50 [6]: 720 nM
- IC50 [7]: > 100000 nM
- IC50 [8]: 11000 nM

Reference: ChEMBL document CHEMBL4477252, “Optimization of microtubule affinity regulating kinase (MARK) inhibitors with improved physical properties” (Bioorg Med Chem Lett, 2016)
